Test results taken from ChEMBL document CHEMBL6078706, “Deciphering the Comprehensive Structure-Activity Relationship of Sunshinamide for Breast Cancer Therapy through Dual Modulation of Apoptotic and Ferroptotic Pathways via TrxR1 and Gpx4 Inhibition” (J Med Chem, 2024).
Activity calls are given as the source filed them. No cut-off for these calls is given here.

Key:
HEK293 = test: Antiproliferative activity against human HEK293 cells assessed as cell viability upto 50 nM incubated for 48 hrs by MTT assay; assay type: toxicity, cell-based; conditions: hek293, 48 h, 0.05 µM
MDA-MB-468 [1] = test: Antiproliferative activity against human MDA-MB-468 cells assessed as cell viability at 10 nM incubated for 48 hrs by MTT assay; assay type: functional, cell-based
A549 = test: Antiproliferative activity against human A549 cells assessed as cell viability at 10 nM incubated for 48 hrs by MTT assay; assay type: functional, cell-based
MDA-MB-468 [2] = test: Induction of ferroptosis in human MDA-MB-468 cells assessed as increase in cell viability at 25 nM incubated for 48 hrs; assay type: functional, cell-based

Row | SMILES | Activity (HEK293) | Activity (MDA-MB-468 [1]) | Activity (A549) | Activity (MDA-MB-468 [2])
1 | CC(C)(C)OC(=O)N[C@@H]1CSSC[C@@H](C(=O)OC(C)(C)C)NC1=O | Non-toxic | – | – | –
2 | CC[C@@H]1CC(=O)N[C@H](Cc2ccccc2)C(=O)N[C@H]2CSSC[C@H](NC2=O)C(=O)O1 | Non-toxic | Active | Active | –
3 | CCCCCCC[C@@H]1CC(=O)N[C@H](CC(C)C)C(=O)N[C@H]2CSSC[C@H](NC2=O)C(=O)O1 | Non-toxic | – | – | –
4 | CCOC(=O)c1ccc(NC2CCCCC2)c(N)c1 | – | – | – | Active
5 | O=C1C[C@@H](c2ccccc2)OC(=O)[C@@H]2CSSC[C@H](NC(=O)[C@@H](Cc3ccccc3)N1)C(=O)N2 | Non-toxic | Active | Active | –
6 | CCCCCCC[C@@H]1CC(=O)N[C@H](CO)C(=O)N[C@H]2CSSC[C@H](NC2=O)C(=O)O1 | Non-toxic | – | – | –
7 | CCCCCCC[C@@H]1CC(=O)NCC(=O)N[C@H]2CSSC[C@H](NC2=O)C(=O)O1 | Non-toxic | – | – | –
8 | CCCCCCC[C@H]1CC(=O)N[C@H](Cc2ccccc2)C(=O)N[C@H]2CSSC[C@H](NC2=O)C(=O)O1 | Non-toxic | – | – | –
